Key:
C. muridarum = test: Control of C. muridarum replication in C57epi.1 epithelial cells (IFU titered on McCoy monolayers); type: cell-based, Chlamydia muridarum
Description: To test whether the CD4 clones could control the Chlamydia replication in vitro, C57epi.1 monolayers in 48 well plates were untreated, or treated with IFN-γ (10 ηg/ml) for 14 h prior to infection or at the time of infection with 3 IFU of C. muridarum per cell. After addition of C. muridarum the plates were spun at 1200 rpm (300 g) for 30 minutes. Four hours after infection the inoculum was removed CD4 T cell clones were added in T cell media. 36 h post-infection, wells were scraped, harvested, and stored at −80° C. until C. muridarum titers determined on McCoy monolayers as previously described (Johnson, R. M., 2004). Recombinant murine IFN-γ at all concentrations tested (up to 1000 ρg/ml) had no effect on C. muridarum titrations done on the McCoy monolayers; maximum IFN-γ carryover in dilutions used for quantifying C. muridarum was <50 ρg/ml.
The panel of CD4 T cell clones was tested to determine the ability of specific clones to control C. muridarum replication in C57epi.1 epithelial cells (FIG. 2). Monolayers of C57epi.1 cells in 48 well plates (˜200,000 epithelial cells per well) were untreated or treated with IFN-γ, either 14 h prior to infection or at the time of infection, then infected with C. muridarum. Four hours post-infection the inoculating media was removed and replaced with T cell media containing CD4 T cell clones; 150, 000 T cells were added per well for an effector-to-target ratio of ˜0.75:1. 32 h later the wells were harvested with additional SPG buffer and recovered C. muridarum titered on McCoy monolayers to score replication. […] IFUs recovered from experimental wells were compared with identically treated (untreated or IFN-γ treated) parallel control wells (no T cells) to calculate % control replication. This normalization controls for the difference in C. muridarum replication in the untreated vs. IFN-γ treated C57epi.1 cells.
Referring now to FIG. 12A, the modest inhibitory effect of IFN-γ was reversed by blocking NO production with either MLA or NIL. […] According to FIG. 12B, C57.1epi cells were untreated (hatched bar) or pretreated with IFN-γ (10 ηg/ml×14 hours) in absence (black bar) or presence of MLA (gray bar) or NIL (light gray bar), and then infected with C. muridarum (3 IFU/cell). Wells were harvested at 36 hours postinfection and C. muridarum (IFU) quantified on McCoy monolayers. Comparisons were made to the infected (hatched bar).
Referring now to FIG. 19B, C. muridarum replication in epithelial cells, by an iNOS-independent mechanism, is controlled by IFN-γ-independent CD4 T cell clones. […] Wells were harvested 36 hours post infection and C. muridarum quantified on McCoy monolayers. […]

iNOS = target: T1, iNOS (Mus musculus, UniProt P29477); test: NO production measured as nitrite by infected C57epi.1 epithelial cells with iNOS inhibitors; type: cell-based, murine
T1 construct: C57epi.1 is a cloned oviduct epithelial cell line derived from a C57BL/6 mouse; endogenous in cells; host or cells: C57epi.1 mouse (C57BL/6) oviduct epithelial cell line, IFN-gamma pretreated and infected with C. muridarum, with or without mouse CD4 T cell clones
Description: Referring now to FIG. 19A, C57 epi.1 epithelial cells, untreated (hatched bars) or pretreated with IFN-γ (10 ηg/ml×14 hours) in the absence (black bars) or presence of iNOS inhibitors MLA (gray bars) or NIL (light gray bars),—were infected with C. muridarum (3 IFU/cell). Four hours later, the inocula were removed and monolayers cocilted with and with CD4 T-cell clones uvmo-1, -2, and -3 for an additional 32 hours. Supernatants were collected at 36 hour post infection, 32 hour post T cell coculture, and analyzed for NO production measured as nitrite. […] Also, MLA and NIL were effective inhibitors of NO production, as MLA blocked>90% of IFN-γ-induced NO; NIL blocked ˜60%.
Still referring to FIG. 19A, the iNOS inhibitor MLA blocks infected epithelial nitrite production to the background level of 2 uM even in the presence of exogenous interferon gamma and CD4 T cell clones uvmo-1,-2,-3. Inhibition of iNOS activity induced by interferon gamma, and interferon gamma plus CD4 T cell clones uvmo-1,-2,-3, in infected C57epi.1 murine epithelial cells using the iNOS inhibitors N^G-Monomethyl-L-arginine (MLA) and L-N^6-(1-Iminoethyl)lysine (NIL). iNOS activity was measured as nitrite in 24 h culture supernatants. […] 24 h supernatants from uninfected C57epi.1 murine epithelial cells have nitrite levels>0<1.5 uM.

| Compound | effect on the modest inhibitory effect of IFN-γ on C. muridarum replication (C. muridarum; C57epi.1 pretreated with IFN-γ, no T cells) | block of IFN-γ-induced NO (iNOS; infected C57epi.1 cells, nitrite in supernatants) [%] | C. muridarum replication in control wells (no T cells) (C. muridarum; C57epi.1 pretreated with IFN-γ 14 h prior to infection, pooled means from two experiments) | C. muridarum replication in control wells (no T cells) (C. muridarum; IFN-γ added at the time of infection) | effect on C. muridarum titrations done on McCoy monolayers (C. muridarum; all concentrations tested (up to 1000 ρg/ml)) | induction of NO production in C57epi.1 epithelial cells (iNOS; IFN-γ 10 ηg/ml × 14 hours, infected, p<0.0001) |
| --- | --- | --- | --- | --- | --- | --- |
| CC(=N)NCCCC[C@H](N)C(=O)O.Cl [NIL, L-N^6-(1-iminoethyl)lysine hydrocholoride] | reversed | ~60 |  |  |  |  |
| IFN-γ: Recombinant murine IFN-γ (R&D Systems) |  |  | 4±2×10^6 IFU/well | 5±1×10^6 IFU/well | no effect | roughly 6 fold |

Source: patent US9185889B2, “CD4 T-cells and CD8zeta cells involved in mammalian host response to epithelial cell infections and uses thereof” (Indiana University Research and Technology Corporation, priority 2010, dated 2015)
